Values after ≈ are worked out from the molar mass of the structure shown. Active and inactive are the calls of the source. The rule behind the calls is not given here.
Key:
[1] = test system: Candida albicans; assay: Antifungal activity against Candida albicans SC5314 assessed as reduction in fungal growth incubated for 48 hrs by CLSI protocol based microplate reader analysis; type: functional
[2] = test system: Nakaseomyces glabratus; assay: Antifungal activity against Candida glabrata 10639 assessed as reduction in fungal growth incubated for 48 hrs by CLSI protocol based microplate reader analysis; type: functional
[3] = test system: Cryptococcus neoformans; assay: Antifungal activity against Cryptococcus neoformans H99 assessed as reduction in fungal growth incubated for 72 hrs by CLSI protocol based microplate reader analysis; type: functional
[4] = test system: Candida albicans; assay: Antifungal activity against Candida albicans 0304103 assessed as reduction in fungal growth incubated for 48 hrs by CLSI protocol based microplate reader analysis; type: functional
[5] = test system: Cryptococcus neoformans; assay: Antifungal activity against Cryptococcus neoformans H99 assessed as reduction in fungal growth at 4 ug/ml incubated upto 72 hrs by microplate reader analysis; type: functional, organism-based; conditions: dose 4.0 µg/ml
[6] = test system: Cryptococcus neoformans; assay: Antifungal activity against Cryptococcus neoformans H99 assessed as reduction in number of colonies at 0.125 to 1 ug/ml incubated for 72 hrs by agar disk diffusion assay; type: functional; conditions: dose 0.125-1 µg/ml
[7] = test system: Cryptococcus neoformans; assay: Disruption of preformed mature biofilm in Cryptococcus neoformans H99 assessed as removal of mature biofilm at 0.125 to 32 ug/ml incubated for 24 hrs by XTT reduction assay; type: functional, organism-based; conditions: dose 0.125-32 µg/ml
[8] = test system: Cryptococcus neoformans; assay: Inhibition of CYP51 in Cryptococcus neoformans H99 assessed as reduction in ergosterol level at 4 ug/ml incubated for 24 hrs by GC-MS analysis (Rvb= 58.33%); conditions: dose 4.0 µg/ml
[9] = test system: Cryptococcus neoformans; assay: Inhibition of CYP51 in Cryptococcus neoformans H99 assessed as increase in lanosterol level at 4 ug/ml incubated for 24 hrs by GC-MS analysis (Rvb= 6.24%); conditions: dose 4.0 µg/ml
[10] = test system: Cryptococcus neoformans; assay: Inhibition of CYP51 in Cryptococcus neoformans H99 assessed as decrease in unknown sterol level at 4 ug/ml incubated for 24 hrs by GC-MS analysis (Rvb= 22.95%); conditions: dose 4.0 µg/ml
[11] = test system: Cryptococcus neoformans; assay: Inhibition of CYP51 in Cryptococcus neoformans H99 assessed as increase in other unknown sterol level at 4 ug/ml incubated for 24 hrs by GC-MS analysis (Rvb= 12.49%); conditions: dose 4.0 µg/ml
[12] = test system: Cryptococcus neoformans; assay: Antifungal activity against Cryptococcus neoformans H99 assessed as change in internal microstructure by observing cell membrane damage at 4 ug/ml incubated for 8 hrs by TEM analysis; type: functional, organism-based; conditions: dose 4.0 µg/ml
[13] = test system: Cryptococcus neoformans; assay: Antifungal activity against Cryptococcus neoformans H99 assessed as change in internal microstructure by observing sparse capsule at 4 ug/ml incubated for 8 hrs by TEM analysis; type: functional, organism-based; conditions: dose 4.0 µg/ml
[14] = test system: Cryptococcus neoformans; assay: Antifungal activity against Cryptococcus neoformans H99 assessed as reduction in fungal growth at 0.25 to 8 ug/ml incubated upto 72 hrs by microplate reader analysis; type: functional, organism-based; conditions: dose 0.25-8 µg/ml
[15] = test system: Cryptococcus neoformans; assay: Inhibition of biofilm formation in Cryptococcus neoformans H99 at 0.25 ug/ml incubated for 24 hrs by XTT reduction assay; type: functional
[16] = test system: Cryptococcus neoformans; assay: Fungicidal activity against Cryptococcus neoformans H99 assessed as reduction in colony forming units at 4 to 8 ug/ml incubated upto 72 hrs by time-kill assay; type: functional, organism-based; conditions: dose 4-8 µg/ml
[17] = test system: Cryptococcus neoformans; assay: Inhibition of biofilm formation in Cryptococcus neoformans H99 at 16 to 64 ug/ml incubated for 24 hrs by XTT reduction assay; type: functional, organism-based; conditions: dose 16-64 µg/ml

SMILES | MIC80 [1] [µg/mL] | MIC80 [2] [µg/mL] | MIC80 [3] [µg/mL] | MIC80 [4] [µg/mL] | further results
CN(CC(O)(Cn1cncn1)c1ccc(F)cc1F)c1cc(O/N=[N+](\[O-])N2CCC(O)CC2)c([N+](=O)[O-])cc1[N+](=O)[O-] (stereo not drawn) | > 64 | > 64 | 64 (≈ 108 µM) | > 64 | 
CN(Cc1ccc(OCCCOc2ccc(CC(=O)OCCCCCCOc3no[n+]([O-])c3S(=O)(=O)c3ccccc3)cc2)cc1)CC(O)(Cn1cncn1)c1ccc(F)cc1F (stereo not drawn) | 8 (≈ 8.98 µM) | 4 (≈ 4.49 µM) | 4 (≈ 4.49 µM) | > 64 | 
OC(Cn1cncn1)(Cn1cncn1)c1ccc(F)cc1F [FLUCONAZOLE] | 0.5 (≈ 1.63 µM) | 2 (≈ 6.53 µM) | 2 (≈ 6.53 µM) | > 64 | Activity [5]: inactive; Activity [6]: inactive; Activity [7]: inactive; inhibition [8]: 19.2%; inhibition [9]: 53.9%; inhibition [10]: 5.55%; inhibition [11]: 21.4%; Activity [12]: Active; Activity [13]: inactive
CN(CC(O)(Cn1cncn1)c1ccc(F)cc1F)c1cc(O/N=[N+](\[O-])N2CCC[C@@H]2CO)c([N+](=O)[O-])cc1[N+](=O)[O-] (stereo partly drawn) | > 64 | > 64 | 64 (≈ 108 µM) | > 64 | 
CN(Cc1ccc(OCCCOc2ccc(CC(=O)OCCCCCO[N+](=O)[O-])cc2)cc1)CC(O)(Cn1cncn1)c1ccc(F)cc1F (stereo not drawn) | 1 (≈ 1.43 µM) | 0.5 (≈ 0.717 µM) | 0.5 (≈ 0.717 µM) | > 64 | 
CN(CC(O)(Cn1cncn1)c1ccc(F)cc1F)c1cc(O/N=[N+](\[O-])N(C)CCO)c([N+](=O)[O-])cc1[N+](=O)[O-] (stereo not drawn) | > 64 | > 64 | 64 (≈ 113 µM) | > 64 | 
CN(Cc1ccc(OCCCOc2ccc(CC(=O)NCCOc3no[n+]([O-])c3S(=O)(=O)c3ccccc3)cc2)cc1)CC(O)(Cn1cncn1)c1ccc(F)cc1F (stereo not drawn) | 2 (≈ 2.4 µM) | 1 (≈ 1.2 µM) | 1 (≈ 1.2 µM) | > 64 | 
CN(Cc1ccc(OCCCOc2ccc(CC(=O)O[C@H]3CO[C@H]4[C@@H]3OC[C@H]4O[N+](=O)[O-])cc2)cc1)CC(O)(Cn1cncn1)c1ccc(F)cc1F (stereo partly drawn) | 4 (≈ 5.41 µM) | 0.5 (≈ 0.676 µM) | 1 (≈ 1.35 µM) | 8 (≈ 10.8 µM) | 
CN(Cc1ccc(OCCCOc2ccc(CC(=O)OCC#CCOc3no[n+]([O-])c3S(=O)(=O)c3ccccc3)cc2)cc1)CC(O)(Cn1cncn1)c1ccc(F)cc1F (stereo not drawn) | 16 (≈ 18.6 µM) | 2 (≈ 2.33 µM) | 2 (≈ 2.33 µM) | > 64 | 
CN(Cc1ccc(OCCCOc2ccc(CC(=O)OCCCO[N+](=O)[O-])cc2)cc1)CC(O)(Cn1cncn1)c1ccc(F)cc1F (stereo not drawn) | 1 (≈ 1.49 µM) | 1 (≈ 1.49 µM) | 0.125 (≈ 0.187 µM) | > 64 | Activity [14]: Dose-Dependent Effect; inhibition at 0.25 µg/mL [15]: > 50%
CN(Cc1ccc(CNCCCCCOc2no[n+]([O-])c2S(=O)(=O)c2ccccc2)cc1)CC(O)(Cn1cncn1)c1ccc(F)cc1F (stereo not drawn) | 8 (≈ 11.5 µM) | 8 (≈ 11.5 µM) | 2 (≈ 2.87 µM) | > 64 | 
CN(Cc1ccc(CNCCCOc2no[n+]([O-])c2S(=O)(=O)c2ccccc2)cc1)CC(O)(Cn1cncn1)c1ccc(F)cc1F (stereo not drawn) | 16 (≈ 23.9 µM) | 8 (≈ 11.9 µM) | 2 (≈ 2.99 µM) | 32 (≈ 47.8 µM) | 
CN(Cc1ccc(OCCCOc2ccc(CC(=O)OCCOCCOc3no[n+]([O-])c3S(=O)(=O)c3ccccc3)cc2)cc1)CC(O)(Cn1cncn1)c1ccc(F)cc1F (stereo not drawn) | 1 (≈ 1.14 µM) | 1 (≈ 1.14 µM) | 1 (≈ 1.14 µM) | > 64 | 
CN(Cc1ccc(OCCCOc2ccc(CC(=O)OCCCCO[N+](=O)[O-])cc2)cc1)CC(O)(Cn1cncn1)c1ccc(F)cc1F (stereo not drawn) | 2 (≈ 2.93 µM) | 0.5 (≈ 0.731 µM) | 0.5 (≈ 0.731 µM) | > 64 | 
CCN(CC)/[N+]([O-])=N/Oc1cc(N(C)CC(O)(Cn2cncn2)c2ccc(F)cc2F)c([N+](=O)[O-])cc1[N+](=O)[O-] (stereo not drawn) | > 64 | > 64 | 64 (≈ 113 µM) | > 64 | 
CN(CC(O)(Cn1cncn1)c1ccc(F)cc1F)c1cc(O/N=[N+](\[O-])N2CCCC2)c([N+](=O)[O-])cc1[N+](=O)[O-] (stereo not drawn) | > 64 | > 64 | 64 (≈ 114 µM) | > 64 | 
CN(Cc1ccc(CNCCOc2no[n+]([O-])c2S(=O)(=O)c2ccccc2)cc1)CC(O)(Cn1cncn1)c1ccc(F)cc1F (stereo not drawn) | 64 (≈ 97.6 µM) | 8 (≈ 12.2 µM) | 2 (≈ 3.05 µM) | 64 (≈ 97.6 µM) | 
CN(Cc1ccc(OCCCOc2ccc(CC(=O)OCCCCCOc3no[n+]([O-])c3S(=O)(=O)c3ccccc3)cc2)cc1)CC(O)(Cn1cncn1)c1ccc(F)cc1F (stereo not drawn) | 4 (≈ 4.56 µM) | 4 (≈ 4.56 µM) | 4 (≈ 4.56 µM) | > 64 | 
CN(Cc1ccc(OCCCOc2ccc(CC(=O)OCc3ccccc3CO[N+](=O)[O-])cc2)cc1)CC(O)(Cn1cncn1)c1ccc(F)cc1F (stereo not drawn) | 1 (≈ 1.37 µM) | 1 (≈ 1.37 µM) | 0.25 (≈ 0.342 µM) | > 64 | 
CN(Cc1ccc(OCCCOc2ccc(CC(=O)O)cc2)cc1)CC(O)(Cn1cncn1)c1ccc(F)cc1F (stereo not drawn) |  |  | 2 (≈ 3.53 µM) |  | Activity [16]: inactive
CC1(C)N(O)C(c2ccccc2)=[N+]([O-])C1(C)C |  |  |  |  | inhibition [17]: inactive
CN1CCN(/[N+]([O-])=N/Oc2cc(N(C)CC(O)(Cn3cncn3)c3ccc(F)cc3F)c([N+](=O)[O-])cc2[N+](=O)[O-])CC1 (stereo not drawn) | > 64 | > 64 | 64 (≈ 108 µM) | > 64 | 
CN(Cc1ccc(OCCCOc2ccc(CC(=O)OCCCCOc3no[n+]([O-])c3S(=O)(=O)c3ccccc3)cc2)cc1)CC(O)(Cn1cncn1)c1ccc(F)cc1F (stereo not drawn) | 4 (≈ 4.64 µM) | 4 (≈ 4.64 µM) | 4 (≈ 4.64 µM) | > 64 | 
